What was measured:
human SGLT1 = biological target: T1, human SGLT1 (Homo sapiens, UniProt P13866); experiment: Assay for inhibitory effects on human SGLT1 activity (uptake of methyl-α-D-glucopyranoside in CS1-5-11D cells); format: cell-based; settings: CHO-K1 cells stably expressing human SGLT1 (CS1-5-11D); 1 mM α-MG uptake, 37° C., 1 hour
T1 construct: expressed in transfected cells
T1 sequence (P13866 1-664): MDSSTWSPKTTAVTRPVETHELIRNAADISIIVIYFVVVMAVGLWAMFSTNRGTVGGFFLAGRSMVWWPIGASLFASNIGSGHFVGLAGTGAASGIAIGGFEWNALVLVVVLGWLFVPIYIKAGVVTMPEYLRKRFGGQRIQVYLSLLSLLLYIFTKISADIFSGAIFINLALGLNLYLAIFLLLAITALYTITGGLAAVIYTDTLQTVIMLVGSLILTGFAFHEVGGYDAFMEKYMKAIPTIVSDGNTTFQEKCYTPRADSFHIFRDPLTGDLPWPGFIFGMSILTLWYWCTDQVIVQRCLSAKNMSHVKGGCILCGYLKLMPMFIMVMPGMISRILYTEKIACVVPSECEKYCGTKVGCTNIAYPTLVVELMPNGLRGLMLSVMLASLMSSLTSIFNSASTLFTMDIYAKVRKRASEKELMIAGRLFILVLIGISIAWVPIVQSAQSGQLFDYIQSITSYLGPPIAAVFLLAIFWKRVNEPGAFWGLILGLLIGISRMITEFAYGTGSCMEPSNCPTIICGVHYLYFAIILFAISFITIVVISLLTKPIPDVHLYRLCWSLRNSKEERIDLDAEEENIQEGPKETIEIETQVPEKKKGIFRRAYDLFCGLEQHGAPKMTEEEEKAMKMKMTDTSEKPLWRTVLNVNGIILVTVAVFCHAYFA
Experimental: Assay for Inhibitory Effects on Human SGLT1 Activity
1) Cloning and Construction of the Vector Expressing Human SGLT1
The cDNA library was prepared for PCR amplification by reverse transcription from total RNA deprived from human small intestine (Ori gene) using oligo-dT as a primer. Using this cDNA library as a template, the DNA fragment coding 1 to 2005 bp of human SGLT1 (ACCESSION: M24847), which was reported by Hediger et al., was amplified by PCR method and inserted into the multi-cloning site of pcDNA3.1(−) (Invitrogen). The DNA sequence inserted was perfectly matched to the previously reported sequence.
2) Establishment of Cell Line Stably Expressing Human SGLT1
The expression vector of human SGLT1 was digested by Sca I into a linear DNA. The linear DNA was transfected into CHO-K1 cells by means of lipofection (Effectene Transfection Reagent: QIAGEN). Neomycin resistant cell lines were selected by culture in the medium containing G418 (1 mg/mL, LIFE TECHNOLOGIES), and then the activity against the uptake of methyl-α-D-gluco-pyranoside was measured by the method described below. […] CS1-5-11D cells were cultured in the presence of G418 at 200 μg/mL.
3) Measurement of the Inhibitory Activity Against the Uptake of methyl-α-D-glucopyranoside (α-MG)
CS1-5-11D cells were seeded into a 96-well culture plate at a density of 3×10^4 cells/well and cultured for 2 days, and were used in the uptake assay. A mixture of non-labeled (Sigma) and ^14C-labeled α-MG (Amersham Pharmcia Biotec) was added to the uptake buffer (pH 7.4; containing 140 mM sodium chloride, 2 mM potassium chloride, 1 mM calcium chloride, 1 mM magnesium chloride, 10 mM 2-[4-(2-hydroxyethyl)-1-piperazinyl]ethane sulfonic acid, and 5 mM tris(hydroxymethyl)aminomethane) at the final concentration of 1 mM. A test compound was dissolved in dimethyl sulfoxide, and then appropriately diluted with distilled water. The test compound solution was added to the uptake buffer containing 1 mM α-MG, and designated as a measurement buffer. For the control group, the measurement buffer without any test compound was prepared. For measuring the basal uptake, a basal uptake measurement buffer which contains 140 mM chorine chloride instead of sodium chloride was prepared. After removing the culture medium of CS1-5-11D cells, 180 μL of the pre-treatment buffer (the basal uptake buffer without α-MG) was added to each well and incubated at 37° C. for 10 minutes. After repeating the same treatment, the pre-treatment buffer was removed. To each well was added 75 μL of the measurement buffer or the basal uptake buffer was added and incubated at 37° C. for 1 hour. After removing the measurement buffer, cells were washed twice with 180 μL per well of the washing buffer (the basal uptake buffer containing 10 mM non-labeled α-MG). The cells were solubilized by 75 μL per well of 0.2 mol/L sodium hydroxide. The cell lysates were transferred into PicoPlates (Packard), and then added 150 μL of MicroScint-40 (Packard) and mixed. Radioactivity was measured by means of micro-scintillation counter TopCount (Packard). One hundred % was set to the difference between the uptake in the control group and the basal uptake, and the uptake of methyl α-D-gluco-pyranoside at each drug concentration were calculated.

diabetic rats = experiment: Assay for inhibitory effects on blood glucose level increase in rats (liquid meal tolerance test in diabetic rat model); format: in vivo; settings: test compound 1 mg/kg orally, liquid meal 17.25 kcal/kg, mean ± S.E.; for Plasma glucose concentration 0.5 h: 0.5 hour after drug administration; for Plasma glucose concentration 1 h: 1 hour after drug administration; for Plasma glucose concentration 0 h: pretreatment (0 h)
Experimental: Assay for Inhibitory Effects on Blood Glucose Level Increase in rats
1) Preparation of Diabetic Rat Model
Male wistar rats (Japan Charles River), aged 8 weeks old, were injected nicotinamide (230 mg/kg) intraperitoneally. Fifteen minutes after injection, they were injected streptozotocin (85 mg/kg) intravenously from tail vain under anesthesia with ether. After a week, rats were fasted overnight and then glucose tolerance test (2 g/kg) was done.
2) Liquid Meal Tolerance Test
After overnight fasted, the diabetic rats were orally administered a test compound (1 mg/kg), which was dissolved in distilled water, in the drug-treating group, or distilled water alone in a control group. Immediately after the compound administration, 17.25 kcal/kg of liquid meal (No. 038, Control diet, assorted with dextrin and maltose; Oriental Yeast Co., Ltd.) was loaded orally. The blood was collected from tail artery immediately before and after administration with the time course, and treated with heparin immediately. The blood was centrifuged, and the plasma was collected to quantify the plasma glucose concentration by glucose oxidase method. The values in the table are presented as the mean ±S.E.

| Compound | IC50 (human SGLT1) | Plasma glucose concentration 0.5 h (diabetic rats) | Plasma glucose concentration 1 h (diabetic rats) | Plasma glucose concentration 0 h (diabetic rats) |
| --- | --- | --- | --- | --- |
| CC(C)c1[nH]nc(O[C@@H]2O[C@H](CO)[C@@H](O)[C@H](O)[C@H]2O)c1Cc1ccc(CCCS(=O)(=O)NC(C)(C)C(N)=O)cc1 [Example 35, 4-[(4-{3-[1-Carbamoyl-1-(methyl)ethylsulfamoyl]propyl}-phenyl)methyl]-3-(β-D-glucopyranosyloxy)-5-isopropyl-1H-pyrazole] | 0.115 µM |  |  |  |
| CC(C)c1[nH]nc(O[C@@H]2O[C@H](CO)[C@@H](O)[C@H](O)[C@H]2O)c1Cc1ccc(/C=C/C(=O)NC(C)(C)C(N)=O)cc1 [Example 29, 4-[(4-{(1E)-2-[1-Carbamoyl-1-(methyl)ethylcarbamoyl]vinyl}-phenyl)methyl]-3-(β-D-glucopyranosyloxy)-5-isopropyl-1H-pyrazole] | 0.431 µM |  |  |  |
| CC(C)c1[nH]nc(O[C@@H]2O[C@H](CO)[C@H](O)[C@H](O)[C@H]2O)c1Cc1ccc(CCCC(=O)NC(C)(C)C(=O)N2CCN(CCO)CC2)cc1 [Example 48, 3-(β-D-Galactopyranosyloxy)-4-[(4-{3-[1-{[4-(2-hydroxy-ethyl)piperazin-1-yl]carbonyl}-1-(methyl)ethylcarbamoyl]-propyl}phenyl)methyl]-5-isopropyl-1H-pyrazole] | 0.031 µM | 139 ± 4 mg/dL | 132 ± 4 mg/dL | 112 ± 5 mg/dL |
| CC(C)c1[nH]nc(O[C@@H]2O[C@H](CO)[C@@H](O)[C@H](O)[C@H]2O)c1Cc1ccc(/C=C/C(=O)NC(CO)(CO)CO)cc1 [Example 28, 3-(β-D-Glucopyranosyloxy)-4-[(4-{(1E)-2-[2-hydroxy-1,1-bis-(hydroxymethyl)ethylcarbamoyl]vinyl}phenyl)methyl]-5-isopropyl-1H-pyrazole] | 0.267 µM |  |  |  |
| CC(C)c1[nH]nc(O[C@@H]2O[C@H](CO)[C@@H](O)[C@H](O)[C@H]2O)c1Cc1ccc(CCCC(=O)NCCCN(CCO)CCO)cc1 [Example 15, 3-(β-D-Glucopyranosyloxy)-5-isopropyl-4-{[4-(3-{3-[bis(2-hydroxyethyl)amino]propylcarbamoyl}propyl)phenyl]methyl}-1H-pyrazole] | 0.113 µM |  |  |  |
| CC(C)c1[nH]nc(O[C@@H]2O[C@H](CO)[C@@H](O)[C@H](O)[C@H]2O)c1Cc1ccc(CCCS(=O)(=O)NCCN)cc1 [Example 34, 4-({4-[3-(2-Aminoethylsulfamoyl)propyl]phenyl}methyl)-3-(β-D-glucopyranosyloxy)-5-isopropyl-1H-pyrazole] | 0.245 µM |  |  |  |
| CC(C)c1[nH]nc(O[C@@H]2O[C@H](CO)[C@@H](O)[C@H](O)[C@H]2O)c1Cc1ccc(CCCC(=O)NC(C)(C)C(=O)NCC(N)=O)cc1 [Example 31, 4-[(4-{3-[1-Carbamoylmethylcarbamoyl-1-(methyl)ethyl-carbamoyl]propyl}phenyl)methyl]-3-(β-D-glucopyranosyloxy)-5-isopropyl-1H-pyrazole] | 0.096 µM |  |  |  |
| 3-(β-D-Galactopyranosyloxy)-4-[(4-{3-[2-hydroxy-1-hydroxy-methyl-1-(methyl)ethylcarbamoyl]propyl}phenyl)methyl]-5-isopropyl-1H-pyrazole [Example 32] | 0.22 µM | 223 ± 20 mg/dL | 278 ± 32 mg/dL | 125 ± 8 mg/dL |
| 3-(β-D-Glucopyranosyloxy)-4-({4-[3-(2-hydroxyethyl)-carbamoylpropyl]phenyl}methyl)-5-isopropyl-1H-pyrazole [Example 18] | 0.181 µM |  |  |  |
| CC(C)c1[nH]nc(O[C@@H]2O[C@H](CO)[C@H](O)[C@H](O)[C@H]2O)c1Cc1ccc(CCCC(=O)NC(C)(C)C(=O)N2CCNCC2)cc1 [Example 57, 3-(β-D-Galactopyranosyloxy)-5-isopropyl-4-{[4-(3-{1-[(piperazin-1-yl)carbonyl]-1-(methyl)ethylcarbamoyl}-propyl)phenyl]methyl}-1H-pyrazole] | 0.039 µM |  |  |  |
| CC(C)c1[nH]nc(O[C@@H]2O[C@H](CO)[C@H](O)[C@H](O)[C@H]2O)c1Cc1ccc(CCCC(=O)NC(C)(C)C(N)=O)cc1 [Example 33, 4-[(4-{3-[1-Carbamoyl-1-(methyl)ethylcarbamoyl]propyl}-phenyl)methyl]-3-(β-D-galactopyranosyloxy)-5-isopropyl-1H-pyrazole] | 0.174 µM | 207 ± 8 mg/dL | 251 ± 21 mg/dL | 127 ± 11 mg/dL |
| CC(C)c1[nH]nc(O[C@@H]2O[C@H](CO)[C@@H](O)[C@H](O)[C@H]2O)c1Cc1ccc(CCCC(=O)NC(C)(C)C(=O)NCCO)cc1 [Example 30, 3-(β-D-Glucopyranosyloxy)-4-[(4-{3-[1-(2-hydroxyethyl-carbamoyl)-1-(methyl)ethylcarbamoyl]propyl}phenyl)methyl]-5-isopropyl-1H-pyrazole] | 0.052 µM | 163 ± 8 mg/dL | 187 ± 9 mg/dL | 121 ± 6 mg/dL |
| CC(C)c1[nH]nc(O[C@@H]2O[C@H](CO)[C@@H](O)[C@H](O)[C@H]2O)c1Cc1ccc(CCCC(=O)NC(C)(C)C(N)=O)cc1 [Example 24, 4-[(4-{3-[1-Carbamoyl-1-(methyl)ethylcarbamoyl]propyl}-phenyl)methyl]-3-(β-D-glucopyranosyloxy)-5-isopropyl-1H-pyrazole] | 0.024 µM |  |  |  |
| CC(C)c1[nH]nc(O[C@@H]2O[C@H](CO)[C@@H](O)[C@H](O)[C@H]2O)c1Cc1ccc(CCCC(=O)NC(CO)(CO)CO)cc1 [Example 21, 3-(β-D-Glucopyranosyloxy)-4-[(4-{3-[2-hydroxy-1,1-bis-(hydroxymethyl)ethylcarbamoyl]propyl}phenyl)methyl]-5-isopropyl-1H-pyrazole] | 0.012 µM | 156 ± 15 mg/dL | 178 ± 19 mg/dL | 118 ± 9 mg/dL |
| CC(C)c1[nH]nc(O[C@@H]2O[C@H](CO)[C@@H](O)[C@H](O)[C@H]2O)c1Cc1ccc(/C=C/C(=O)NC(C)(CO)CO)cc1 [Example 27, 3-(β-D-Glucopyranosyloxy)-4-[(4-{(1E)-2-[2-hydroxy-1-hydroxymethyl-1-(methyl)ethylcarbamoyl]vinyl}phenyl)-methyl]-5-isopropyl-1H-pyrazole] | 0.237 µM |  |  |  |

From patent US7655632B2, “Pyrazole derivative, medicinal composition containing the same, medicinal use thereof, and intermediate for production thereof” (Kissei Pharmaceutical Co., Ltd., priority 2002, dated 2010)
